Measured values reported in patent US20240417371A1, “CANNABIDIOL DERIVATIVE, AND PREPARATION METHOD THEREFOR AND USE THEREOF” (priority 2021, published 2024).

Assays:
Bcl-2 = assay: WB detection of apoptosis-related protein Bcl-2 in hippocampal tissues of PTZ-kindling rats; type: in vivo, Wistar rats; details: hippocampus at end of 14-day treatment, 100 mg/kg intragastric
Protocol: At the end of the experiment, the brains and hippocampi of the laboratory animals were collected and frozen at −80° C.
4. WB Detection of Expression of Apoptosis-Related Proteins Bax and Bcl-2 in Hippocampal Tissues of Rats:
The hippocampal tissue was cut into small pieces, the lysis buffer (protease and phosphatase inhibitors added to the lysis buffer) was added at a ratio of 150-250 μL:20 mg, and the mixture was homogenized with a homogenizer until complete lysis. The sample obtained after the lysis was centrifuged at 12,000 g at 4° C. for 15 min. The supernatant was taken, subjected to protein quantification, and stored in a refrigerator at −80° C.
• (1) Standard curve plotting: a microplate was taken, and reagents were added according to the table below. […]
About 25 μg of the protein was loaded into each well, and the loading amount can be increased according to the experiment requirements. According to the results of protein quantification, the required protein was taken and a proper amount of sample loading buffer was added. […]

[1] = system: mouse model of Parkinson's disease established by the intraperitoneal injection of MPTP; assay: Behavioral balance beam score in MPTP model of Parkinson's disease; type: in vivo, C57/BL6 mice; details: scale 0-5
Protocol: C57/BL6 mice, SPF grade, weighing 18-20 g, aged 6-8 weeks, male, purchased from Shanghai Slac Laboratory Animal Co., Ltd. Feeding environment: the temperature was kept at 22±1° C., and the humidity was kept at 65%-70%, in a 12/12 hour light/dark illumination cycle, with free access to water.
• (1) SPF-grade C57 mice aged 6-8 weeks were purchased and acclimatized for one week, and subsequently the modeling was started. • (2) MPTP (25 mg/kg) was intraperitoneally injected once a day for 7 consecutive days. The blank group was left untreated. • (3) After modeling, administration was started. […] The intragastric administration was performed once a day for 14 consecutive days. • (4) Behavioral test was first performed by balance beam test scoring.
A beam of 80 cm long and 2.5 cm wide was horizontally fixed at a height of 10 cm from the table top, and subsequently, the animals were allowed to walk on the beam. […]

With C=C(C)[C@@H]1CCC(C)=C[C@H]1c1c(O)cc(CCCCC)cc1OCC(=O)N[C@@H](CCSC)C(=O)[O-].[Na+] [Compound E1] the “Bcl-2 protein expression in hippocampal tissues” value (Bcl-2) was “significantly higher than that in the model group”, the “behavioral balance beam score, After modeling” value ([1]; after MPTP 25 mg/kg i.p. for 7 days, before treatment) was 4.63 ± 0.52 and the “behavioral balance beam score, After treatment” value ([1]; intragastric 100 mg/kg once a day for 14 days (positive drug = amantadine 40 mg/kg)) was 3.75 ± 0.89.
